Measurements published in patent US20250082587A1, “Method Of Treating Major Depressive Disorder” (CLEXIO BIOSCIENCES LTD., priority 2023, published 2025).

Test system: subjects with MDD with an inadequate response to standard antidepressant therapy
Assay: Phase 2, randomized double blind study of 40 mg immediate release once daily esketamine as adjunct therapy; change in MADRS score
Type: in vivo, human
Conditions: for Change from baseline against placebo (MADRS): sub-analysis, 40 mg oral once daily
Description: A Phase 2, randomized double blind study to assess the safety and efficacy of 40 mg immediate release once daily esketamine as an adjunct therapy for subjects with MDD with an inadequate response to standard antidepressant therapy.
The safety and efficacy of 65 subjects with MDD with an inadequate response to standard antidepressant therapy were assessed in a Phase 2, randomized double blind study following the administration of 40 mg of immediate release once daily esketamine as adjunct therapy.
The study comprised 3 phases, screening (Days 0-28), double-blind treatment (days 29-56) and post-treatment safety follow-up (days 57-70) following the last study treatment administration.
The study's primary efficacy endpoint was the change from baseline to week 4 in the 10 item Montgomery-Åsberg Depression Rating Scale (MADRS). Key secondary efficacy endpoints included the change in the self-rated Symptoms of Depression Questionnaire (SDQ) from Baseline to Week 4, the change in the Sheehan Disability Scale (SDS) from Baseline to Week 4, the change in the MADRS score from Baseline to Week 2 and the change in the Clinical Global Impression-Severity (CGI-S) from Baseline to Week 4.
During screening, subjects were assessed for study eligibility and washed out from disallowed drugs. Inclusion criteria for the study included the subjects presenting with a baseline MADRS of at least 24.
After being found eligible, subjects were randomized to receive once daily, either placebo or 40 mg of oral, immediate release, esketamine, respectively.
Subjects received the first dose of their study drug at the study site and were then closely monitored for 3 hours to assess for potential neuropsychiatric adverse events using a comprehensive set of scales to identify sleepiness, sedation and dissociative effects. Thereafter, the subject was provided with a 1 week supply of the study drug for administration at their place of residence and instructed to take the study drug in the evening (except at the day of the weekly visit when it is taken at the study site) and not to drive for at least 8 hours following the dosing. At every subject visit, a psychiatrist evaluated the subject's MADRS score.

Structure (SMILES): CN[C@]1(c2ccccc2Cl)CCCCC1=O [esketamine, (2S)-2-(2-Chlorophenyl)-2-(methylamino)cyclohexanone]
- improvement in the symptoms (baseline MADRS of 28 or more, 40 mg immediate release oral, 28 days): statistically significant improvement
- improvement in depression symptoms (baseline MADRS of less than 28, 40 mg immediate release oral, 28 days): no identifiable improvement
- Change from baseline against placebo (MADRS) (baseline MADRS score <28, 28 days): +4.25
- Change from baseline against placebo (MADRS) (baseline MADRS score ≥28, 28 days, p value 0.005): −7.425
- Change from baseline against placebo (MADRS) (baseline MADRS score ≥33, 28 days, p value 0.050): −5.978
- primary efficacy endpoint (change from baseline to week 4 in MADRS) between treatment groups (subjects who completed the study, 40 mg oral once daily vs placebo): clinically meaningful and statistically significant
